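All cell lines were grown in 96-well plates and treated with compound for 48 hours. At the GI50, growth is halved.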 Activity calls are given as the source filed them. Cut-off read from the data, not from the text of the source: active = GI50 up to about 1.1 µM and inactive = higher.
Legend:
Test in all cases: inhibition of tumour cell growth, NCI panel, 48 h
[1] = tested on: DMS-114
[2] = tested on: DMS-273
[3] = tested on: DLD-1
[4] = tested on: LXFL 529
[5] = tested on: M19-MEL
[6] = tested on: SNB-78
[7] = tested on: XF498
[8] = tested on: HOP-18
[9] = tested on: RXF 631

Measured: GI50

CCOC(=O)CNC(=O)c1nc[nH]c1/N=N/N(C)C
inactive: [1] > 100 µM | [2] > 100 µM | [3] > 100 µM | [4] > 100 µM | [5] > 100 µM

CC1=C/C(=C2/N=C(N(C)C)SS2)C(C)=N1.[O-][Cl+3]([O-])([O-])O
inactive: [1] > 100 µM | [2] > 100 µM | [6] > 100 µM | [3] > 100 µM | [4] > 100 µM | [5] 10.6 µM | [7] > 100 µM | [8] > 100 µM

CC(=O)NNc1nc(C)c(C(=O)/C=C/c2ccc(NC(C)=O)cc2)s1
inactive: [9] > 100 µM | [2] > 100 µM | [6] > 100 µM | [3] > 100 µM | [5] > 100 µM | [8] > 100 µM

CCOc1ccccc1NC(=O)CC(C(=O)OC)C(=O)C(=O)OC (stereo unspecified)
inactive: [9] > 100 µM | [1] > 100 µM | [2] > 100 µM | [6] > 100 µM | [4] > 100 µM | [5] > 100 µM | [8] > 100 µM

N=C(N)NS(=O)(=O)c1ccc(NC(=O)c2cccn3c(=O)c4ccccc4nc23)cc1
inactive: [9] 41.4 µM | [1] 40.6 µM | [2] 32.1 µM | [6] > 100 µM | [3] 83 µM | [4] 37.5 µM | [5] 31.4 µM | [7] 22.5 µM | [8] > 100 µM

COc1ccc(OC)c2c(C(=O)O)c(Cc3ccccc3)ccc12
inactive: [1] > 100 µM | [2] > 100 µM | [3] > 100 µM | [4] > 100 µM | [5] > 100 µM | [7] > 100 µM | [8] > 100 µM

O=S(=O)(SCc1ccccc1)C(c1ccccc1)c1ccccc1
inactive: [1] 19.3 µM | [2] 27.4 µM | [6] 30.5 µM | [3] 13.2 µM | [4] 26.5 µM | [5] 32.4 µM | [7] 58.1 µM

C(=C\c1cc(CCc2nc3ccccc3[nH]2)n[nH]1)/c1ccccc1
inactive: [9] > 100 µM | [1] > 100 µM | [3] > 100 µM | [5] > 100 µM | [7] > 100 µM | [8] > 100 µM

CCCCCCCCCCCCOC(=S)NC
inactive: [1] 20.8 µM | [2] 19.5 µM | [6] 27.8 µM | [3] 17.1 µM | [4] 17 µM | [7] 20 µM | [8] 19 µM

CCN(CC)CCC(=O)/C=C/c1ccc(C)cc1
inactive: [9] 16.4 µM | [1] 11.3 µM | [2] 11.2 µM | [6] 23.5 µM | [3] 6.17 µM | [4] 7.67 µM | [5] 12.8 µM | [7] 12.4 µM | [8] 17.6 µM

C/C(CC(=O)NCCc1ccccc1)=N\NC(=O)C[n+]1ccccc1
inactive: [9] > 100 µM | [1] > 100 µM | [2] > 100 µM | [6] > 100 µM | [3] > 100 µM | [4] > 100 µM | [5] > 100 µM | [7] > 100 µM

Nc1ccc(C(=O)N/C(=C\c2cccc([N+](=O)[O-])c2)c2nc3c(O)nc(S)nc3[nH]2)cc1
inactive: [9] 37.2 µM | [1] > 86.3 µM | [6] 39.3 µM | [3] > 100 µM | [4] > 57.7 µM | [5] > 100 µM | [7] 16.9 µM

COC1C=C(Nc2cccc(Cl)c2)C(=O)C1 (stereo unspecified)
inactive: [1] 34.3 µM | [2] 50.4 µM | [6] 48.4 µM | [3] 51.4 µM | [4] 50.8 µM | [5] > 100 µM | [7] 26.9 µM | [8] 19.1 µM

CC(=O)NNc1nc(C)c(C(=O)NNC(=O)C(=O)Nc2nc3ccc([N+](=O)[O-])cc3s2)s1
inactive: [9] 41.6 µM | [1] 24.4 µM | [2] 62.4 µM | [6] 69.5 µM | [3] 46.1 µM | [4] 49.9 µM | [5] 45.5 µM | [7] 25 µM

CCOC(=O)NC1C2CC(=O)C(O2)C1OCc1ccccc1 (stereo unspecified)
inactive: [9] > 100 µM | [1] > 100 µM | [2] > 100 µM | [6] > 100 µM | [3] > 100 µM | [4] > 100 µM | [5] > 100 µM | [7] > 100 µM | [8] > 100 µM

COc1ccc(N2C(=O)C3c4[nH]c5ccccc5c4C4CCCCC4C3C2=O)cc1 (stereo unspecified)
inactive: [1] 8.63 µM | [2] 6.75 µM | [6] 2.29 µM | [3] 49 µM | [4] 22.2 µM | [5] 28.8 µM | [8] 22.4 µM

O=c1cc(-c2ccccc2)[nH]c2c(Cl)cccc12
inactive: [9] 51.9 µM | [1] 7.66 µM | [2] 7.11 µM | [3] 20.5 µM | [4] 31.5 µM | [5] 9.18 µM | [7] 26.8 µM

C=C1C(=O)OC2CC(C)C3C=CC(=O)C3CC12 (stereo unspecified)
inactive: [9] 3.88 µM | [1] 2.44 µM | [2] 3.54 µM | [6] 3.42 µM | [4] 1.26 µM | [5] 2.72 µM | [7] 1.63 µM | [8] 5.77 µM

COc1cc2c(cc1OC)C1[C@@H](c3ccccc3)OCN1CC2 (stereo partly specified)
inactive: [9] > 100 µM | [1] 88.1 µM | [2] > 100 µM | [6] > 73.1 µM | [3] > 86.9 µM | [4] > 100 µM | [5] > 100 µM | [7] > 100 µM | [8] > 100 µM

CN(C)c1ccc(/C=C2\N=C(c3ccc(N)cc3)OC2=O)cc1
inactive: [9] > 100 µM | [1] > 100 µM | [2] > 100 µM | [6] > 100 µM | [3] > 100 µM | [4] > 100 µM | [5] > 100 µM | [7] > 100 µM | [8] > 100 µM

CC1CC2(S(=O)(=O)c3ccccc3)ON1CC2S(=O)(=O)c1ccccc1 (stereo unspecified)
inactive: [9] > 100 µM | [1] > 100 µM | [2] > 100 µM | [3] > 100 µM | [4] > 100 µM | [5] > 100 µM | [7] > 100 µM

O=C(CC/C(CC(=O)c1ccc(Br)cc1)=N\O)Nc1ccc(Cl)c(Cl)c1
inactive: [1] 27.9 µM | [2] 82.8 µM | [6] > 100 µM | [3] > 100 µM | [4] 47.3 µM | [5] 64.7 µM | [8] 60.5 µM

N#CC(C(=O)CCC(=O)Nc1ccc(Cl)cc1)c1ccccc1Cl (stereo unspecified)
inactive: [9] > 100 µM | [1] > 100 µM | [2] > 100 µM | [6] > 100 µM | [3] 74.1 µM | [4] 13.4 µM | [5] > 100 µM | [7] > 100 µM

CCCC(=O)c1c(NOC2OCC(OC(C)=O)C(OC(C)=O)C2OC(C)=O)nc(OC)n(C)c1=O (stereo unspecified)
inactive: [9] > 100 µM | [1] > 100 µM | [2] > 100 µM | [3] > 100 µM | [4] > 100 µM | [5] > 100 µM | [7] > 100 µM | [8] > 100 µM

Cc1cccc2c3ccc4c(c3n(C)c12)C(=O)C=CC4=O
inactive: [9] > 100 µM | [1] 41.1 µM | [2] 76 µM | [6] > 100 µM | [3] > 100 µM | [4] > 100 µM | [5] > 100 µM

O=C(O)CC(O)(c1ccccc1C(=O)O)c1cccc2ccccc12 (stereo unspecified)
inactive: [9] > 100 µM | [1] > 100 µM | [2] > 100 µM | [6] > 100 µM | [3] > 100 µM | [4] > 100 µM | [5] > 100 µM | [7] > 100 µM | [8] > 100 µM

N#CC(C(=O)CCC(=O)Nc1ccc(Cl)c(Cl)c1)c1ccccc1 (stereo unspecified)
inactive: [1] > 100 µM | [2] > 100 µM | [6] > 100 µM | [3] > 100 µM | [5] > 100 µM | [7] > 100 µM | [8] > 100 µM

O=C1CC23CCCCCCCCCCC2(C1)CC(=O)C3 (stereo unspecified)
inactive: [1] 26.7 µM | [2] 23.1 µM | [3] 34 µM | [4] 23.6 µM | [5] 20.7 µM | [7] 21.5 µM | [8] 24 µM

Reference: ChEMBL document CHEMBL1201862, “PubChem BioAssay data set” (2004)
